This note sets out measurements from US20100086519A1, “Treatment of Hepatitis C Infection With Metalloporphyrins” (The Charlotte-Mecklenburg Hospital Authority d/b/a …, priority 2008, published 2010).

Read-outs that look alike come from different tables or passages of the source.

Data set [1] deals with T1, HCV NS5A protein (Hepatitis C virus genotype 1b, UniProt Q9WMX2, S2204I).
T1 construct: processed into structural (C, E1, E2) and nonstructural (NS2, NS3, NS4A, NS4B, NS5A and NS5B) proteins; expressed in transfected cells; host or cells: Con1 cells (Huh-7.5 with the full-length genotype 1b replicon)
As to the kind of experiment: NS5A protein levels by Western blot in Con1 cells. The data set is classed as cell-based. The note with it: ZnMP 0, 1, 5, 10 μM, 4 hours, FIG. 1B. From the text: (§1) Bartenschlager (University of Heidelberg, Heidelberg, Germany).
(§2) Biochim Biophys Acta 2008; 1779:195-203.
On the technique in general: In western blotting, separated proteins are transferred to a membrane and probed.

Data set [2] has as its system HCV replicon RNA. As to the kind of experiment: HCV RNA by qRT-PCR in Con1 full-length HCV replicon Huh-7.5 cells. It is filed as cell-based, hepatitis C virus. The note with it: different concentrations, 24 hours, FIG. 7A. How it is done: as §1
(§3) Total RNA from treated cells was extracted and cDNA was synthesized as described in Hou et al. Real time quantitative RT-PCR was performed using a MyiQ™ Single Color Real-Time PCR Detection System from Bio-Rad (Hercules, Calif.) and iQ™ SYBR Green Supermix Real-Time PCR kit (Bio-Rad). Samples without template and without reverse transcriptase were included as negative controls, which, as expected, produced negligible signals (Ct values>35). Fold-change values were calculated by comparative Ct analysis after normalizing for the quantity of GAPDH in the same samples.
(§4) Total RNA and proteins were extracted.
On the technique in general: In qPCR the cycle at which signal appears reflects the starting amount.

In data set [3] the test system is HCV core, NS5A. As to the kind of experiment: HCV protein levels by Western blot in Con1 cells, 24 hours. The data set is classed as cell-based, hepatitis C virus. The note with it: different concentrations, FIG. 7B.
Description: as §1, §2, §4

In data set [4] the target is T2, HCV NS5A protein (Hepatitis C virus genotype 2a, UniProt Q99IB8).
T2 construct: processed into structural (C, E1, E2) and nonstructural (NS2, NS3, NS4A, NS4B, NS5A and NS5B) proteins; expressed in transfected cells; host or cells: Huh-7.5 cells transfected with in vitro transcribed J6/JFH1 RNA
As to the kind of experiment: NS5A protein levels in Huh-7.5 cells transfected with J6/JFH1 RNA. Conditions: J6/JFH1 RNA transfected Huh-7.5 cells, 4 or 24 h, FIGS. 8A-8D. The data set is classed as cell-based.
Description: as §2
(§5) Rice (the Rockefeller University, New York, N.Y.).

For data set [5], the system named is J6/JFH1 HCV RNA. In words: HCV RNA by qRT-PCR in Huh-7.5 cells transfected with J6/JFH1 RNA. The note with it: 10 μM, FIG. 8E. The data set is classed as cell-based, hepatitis C virus. How it is done: as §5, §3
In data set [6] the test system is J6/JFH1 HCV. In words: HCV RNA by qRT-PCR in Huh-7.5 cells infected with J6/JFH1 HCV. The data set is classed as cell-based, hepatitis C virus. Conditions: 10 μM, FIG. 8F. How it is done: as §5, §3
In data set [7] the test system is 9-13 cells. In words: CellTiter-Glo luminescent cell viability assay. The data set is classed as cell-based, human. How it is done: The effect of ZnMP on cytotoxicity of treated cells was measured using CellTiter-Glo® Reagent by determining the number of viable cells based on quantitation of the ATP present, which signaled the presence of metabolically active cells. Cells were plated into a 96-well plate with 2500 to 5000 cells/well 24 hours before treatment. Cells were treated with indicated concentrations of ZnMP for 2, 6 and 24 hours in triplicate, an equal volume of CellTiter-Glo® Reagent was added to each well of cell culture medium. The luminescence was read on a Synergy HT microplate reader from Bio-Tek (Winooski, Vt.) with integration time set for 0.25 to 1 second. Decreases in luminescence were taken as an index of cellular cytotoxicity.
In this Example, the cytotoxicity of metalloporphyrins was evaluated. 9-13 cells were seeded into a 96-well plate 24 hours before treatment. Cells were incubated with the indicated concentrations of ZnMP for 0, 2, 6, 24 hours, and CellTiter-Glo® Reagent was added for CellTiter-Glo luminescent cell viability assay on a Synergy HT microplate reader with integration time set for 0.25 to 1 second. Decreases in luminescence were taken as an index of cellular cytotoxicity. * differs from vehicle, P<0.05, Data represent means±SE of triplicate determinations. […] Therefore, ZnMP concentrations not exceeding 20 μM for up to 6 hours or up to 10 μM for up to 24 hours were used.
A general note: ATP-based viability assays read luminescence as a measure of living cells.

For data set [8], the system named is HCV. In words: anti-viral activity (summary statement). It is filed as cell-based, hepatitis C virus.
Data set [9] has as its system HCV core protein. Conditions: CNS3 cells, 0, 1, 5, 10 μM, 4 hours, FIG. 1C.
Description: 9-13 cells, containing a replicating HCV nonstructural region, stably express HCV NS3 to NS5B. CNS3 cells stably express HCV core to NS3 (amino acid residues 1 through 1233 of the Con1 isolate; Gene Bank accession number AJ238799). Huh-7/T7 cells constitutively express the bacteriophage T7 RNA polymerase. The cells were maintained in DMEM supplemented with 10% (v/v) FBS and 500 μg/mL G418 for 9-13 cells, 10 μg/mL zeocin for CNS3 cells or 5 μg/mL zeocin for Huh-7/T7 cells. […] The Con1 cell line is a Huh-7.5 cell population containing the full-length HCV genotype 1b replicon with the highly adaptive serine to isoleucine substitution at amino acid 2204 of the polypeptide. […]
In brief, total proteins (30-50 μg) were separated on 4-15% gradient SDS-PAGE gels. […] Data are expressed as percentages of the controls (corresponding to the value obtained with the vehicle-treated cells), which were assigned values of one.
(§6) NS5A protein levels in 9-13 and Con1 cells, core protein levels in CNS3 cells, and NS5A and core protein levels in Huh-7/T7 cells transfected with pFK-Con1/GND (a plasmid encoding a replication deficient variant of Con1) exposed to different concentrations of ZnMP (0, 1, 5, 10 μM) for 4 hours were evaluated. […]
Data set [10] deals with HCV core protein.
Description: (§7) In brief, total proteins (30-50 μg) were separated on 4-15% gradient SDS-PAGE gels. After electrophoretic transfer onto ImmunBlot PVDF membrane, membranes were blocked for 1 hour in PBS containing 5% nonfat dry milk and 0.1% Tween-20, and then incubated overnight with primary antibody at 4° C. The dilutions of the primary antibodies were as follows: 1:2000 for anti-HCV NS5A and anti-GAPDH antibodies, and 1:5000 for anti-HCV core antibody. The membranes were then incubated for 1 hour with horseradish peroxidase-conjugated secondary antibodies (dilution 1:10,000). Finally, the bound antibodies were visualized with the ECL-Plus chemiluminescence system according to the manufacturer's protocol. A Kodak 1DV3.6 computer-based imaging system (Rochester, N.Y.) was used to measure the relative optical density of each specific band obtained after Western blotting. Data are expressed as percentages of the controls (corresponding to the value obtained with the vehicle-treated cells), which were assigned values of one. […]
as §6
Data set [11] concerns HCV core protein. The note with it: Huh-7/T7 cells, pFK-Con1/GDD, FIG. 7D; much less than in Con1 replicon system.
Description: as §7
To evaluate whether ZnMP-mediated degradation of NS5A may play a role in inhibiting HCV replication, Con1 full-length HCV replicon Huh-7.5 cells were treated with different concentrations of ZnMP for 24 hours. […] HCV virus RNA was quantified by qRT-PCR, and the levels of HCV core, NS5A and GAPDH protein were measured by Western blots. […]
For data set [12], the system named is HCV core protein. The note with it: J6/JFH1 RNA transfected Huh-7.5 cells.
Description: In brief, total proteins (30-50 μg) were separated on 4-15% gradient SDS-PAGE gels. After electrophoretic transfer onto ImmunBlot PVDF membrane, membranes were blocked for 1 hour in PBS containing 5% nonfat dry milk and 0.1% Tween-20, and then incubated overnight with primary antibody at 4° C. The dilutions of the primary antibodies were as follows: 1:2000 for anti-HCV NS5A and anti-GAPDH antibodies, and 1:5000 for anti-HCV core antibody. The membranes were then incubated for 1 hour with horseradish peroxidase-conjugated secondary antibodies (dilution 1:10,000). Finally, the bound antibodies were visualized with the ECL-Plus chemiluminescence system according to the manufacturer's protocol. A Kodak 1DV3.6 computer-based imaging system (Rochester, N.Y.) was used to measure the relative optical density of each specific band obtained after Western blotting. Data are expressed as percentages of the controls (corresponding to the value obtained with the vehicle-treated cells), which were assigned values of one.
For HCV RNA transfection, Huh-7.5 cells were plated in 24-well plates one day prior to transfection and transfected at 70˜80% confluence. […]
Huh-7.5 cells were transfected with 2 μg/well of J6/JFH1 RNA by Lipofectamine 2000. […] HCV RNA was quantified by qRT-PCR, and HCV core, NS5A and GAPDH protein levels were measured by Western blots.
Data set [13] deals with T3, HCV NS5A protein (Hepatitis C virus genotype 1b, UniProt Q9WMX2). As to the kind of experiment: NS5A protein levels in Huh-7/T7 cells transfected with pFK-Con1/GND. It is filed as cell-based. The note with it: 24 h, FIG. 7C. More on the design: processed into structural (C, E1, E2) and nonstructural (NS2, NS3, NS4A, NS4B, NS5A and NS5B) proteins; expressed in transfected cells; host or cells: Huh-7/T7 cells transiently transfected with pFK-Con1/GND.
Description: as §2, §4

Data set [14] addresses T3, HCV NS5A protein. In words: NS5A protein half-life determination with cycloheximide in 9-13 cells. Set-up: processed into structural (C, E1, E2) and nonstructural (NS2, NS3, NS4A, NS4B, NS5A and NS5B) proteins; expressed in transfected cells; host or cells: 9-13 cells (human hepatoma cells with a replicating HCV NS3-NS5B region). The note with it: 100 ug/mL CHX, 10 μM ZnMP, 0-4 h, FIGS. 4A, 4B. The data set is classed as cell-based.
Description: 9-13 cells were incubated with 100 ug/mL cycloheximide (CHX) in the presence or absence of 10 uM ZnMP. Western blots were performed using anti-HCV NS5A and anti-GAPDH antibodies. Band intensities of Western blots were measured by densitometric analysis. GAPDH bands were used as internal controls to correct for protein loadings.
9-13 cells were treated with 100 ug/mL cycloheximide (CHX) and with or without 10 μM ZnMP for the indicated periods (0, 0.5, 1, 2, 4 h), and then cells were harvested and total proteins were isolated. Proteins were separated on 4-15% SDS-polyacrylamide gel, transferred to a PVDF membrane, anti-HCV NS5A or GAPDH specific antibodies were used to detect NS5A or GAPDH protein levels by Western blot. […] The band intensity of NS5A from untreated sample (0 h) was set at 1.

T3 sequence (Q9WMX2 1973-2419): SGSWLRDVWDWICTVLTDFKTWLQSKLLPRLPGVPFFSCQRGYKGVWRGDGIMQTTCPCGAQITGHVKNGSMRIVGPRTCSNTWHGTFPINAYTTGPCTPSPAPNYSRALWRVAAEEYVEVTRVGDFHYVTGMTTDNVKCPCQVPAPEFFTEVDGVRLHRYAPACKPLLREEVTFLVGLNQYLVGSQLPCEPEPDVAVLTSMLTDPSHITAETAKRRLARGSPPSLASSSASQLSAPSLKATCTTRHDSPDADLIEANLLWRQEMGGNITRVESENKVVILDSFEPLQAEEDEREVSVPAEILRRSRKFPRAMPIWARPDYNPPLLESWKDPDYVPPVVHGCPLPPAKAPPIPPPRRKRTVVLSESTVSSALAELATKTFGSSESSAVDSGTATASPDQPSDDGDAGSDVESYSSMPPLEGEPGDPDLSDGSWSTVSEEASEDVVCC
T2 sequence (Q99IB8 1977-2442): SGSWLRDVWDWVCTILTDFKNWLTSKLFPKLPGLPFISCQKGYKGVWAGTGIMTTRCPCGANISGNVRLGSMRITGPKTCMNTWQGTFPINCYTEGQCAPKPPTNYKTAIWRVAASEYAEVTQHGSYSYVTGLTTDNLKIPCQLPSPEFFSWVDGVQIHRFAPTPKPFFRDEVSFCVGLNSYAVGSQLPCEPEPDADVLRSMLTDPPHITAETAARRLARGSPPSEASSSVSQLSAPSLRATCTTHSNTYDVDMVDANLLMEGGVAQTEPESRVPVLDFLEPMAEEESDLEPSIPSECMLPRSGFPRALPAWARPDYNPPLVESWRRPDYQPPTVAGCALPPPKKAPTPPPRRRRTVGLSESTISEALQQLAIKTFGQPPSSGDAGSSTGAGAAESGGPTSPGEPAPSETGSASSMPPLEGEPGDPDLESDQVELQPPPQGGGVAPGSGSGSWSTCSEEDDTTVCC
T1 sequence (Q9WMX2 1973-2419 S2204I): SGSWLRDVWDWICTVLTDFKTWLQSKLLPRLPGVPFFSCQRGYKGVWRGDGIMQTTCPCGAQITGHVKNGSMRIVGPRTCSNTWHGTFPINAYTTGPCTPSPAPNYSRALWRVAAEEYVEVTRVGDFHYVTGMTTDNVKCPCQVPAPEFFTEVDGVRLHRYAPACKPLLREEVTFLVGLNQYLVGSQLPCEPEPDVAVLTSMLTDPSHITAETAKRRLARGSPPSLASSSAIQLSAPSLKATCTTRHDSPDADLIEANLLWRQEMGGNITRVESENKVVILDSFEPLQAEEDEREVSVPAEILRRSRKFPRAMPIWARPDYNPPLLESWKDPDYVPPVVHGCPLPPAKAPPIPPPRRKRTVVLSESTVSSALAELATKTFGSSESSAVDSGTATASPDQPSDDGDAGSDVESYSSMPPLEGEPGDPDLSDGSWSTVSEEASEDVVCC

For the compound `CCC1=C(C)c2cc3[nH]c(cc4nc(cc5[n-]c(cc1n2)c(C)c5CCC(=O)[O-])C(CCC(=O)[O-])=C4C)c(C)c3CC.[H+].[Zn+2]` [ZnMP, Zinc mesoporphyrin], the NS5A protein levels entry in data set [1] is “marked decrease”; in [4], “rapid and profound decrease”; in [13] it was “markedly decreased”. The “viral RNA levels” value in data set [2] was “dose-dependent reduction”. For the same compound, the HCV protein levels result in [3] was “dose-dependent reduction”. Besides, the “decrease of HCV RNA levels” value is roughly 70% in data set [5] and roughly 90% in [6]. In addition, the cell viability result in [7] (20 μM, 2-6 hours) is given as “no significant effect”; in [7] (1-10 μM, 2-24 hours) it was “no significant effect”. In addition, the cytotoxicity entry in [7] (20 μM, 24 hours, p<0.05) is “significant cytotoxicity”. In addition, the “anti-viral activity (summary statement)” value in [8] was “display anti-viral activity”. The “HCV core protein levels” value in [9] is “no detectable effects”; in [10] (Huh-7/T7 cells transfected with pFK-Con1/GND, 0, 1, 5, 10 μM, 4 hours, FIG. 1D) it was “no detectable effects”; in data set [10] (Huh-7/T7 cells, pFK-Con1/GND, 24 h, FIG. 7C), “remained unaffected”; in [11] it was “reduction of core”. The core protein levels result in data set [12] (4 h) was “not affected”; in [12] (24 h) it was “decrease”. Further, the “NS5A protein levels in presence of cycloheximide” value in [14] is “greatly and rapidly reduced”.
